Test results as given in the supplement of paper PMC10307832.

What was measured:
Assay in all cases: relative viability (nuclei count vs DMSO), 5 days (fraction); higher = more cells survive
MLN4924 + Dasatinib = compound: NS(=O)(=O)OC[C@@H]1C[C@@H](n2ccc3c(N[C@H]4CCc5ccccc54)ncnc32)C[C@@H]1O [MLN4924] + Cc1nc(Nc2ncc(C(=O)Nc3c(C)cccc3Cl)s2)cc(N2CCN(CCO)CC2)n1 [Dasatinib] (partner 0.075 µM)
In short: (§1)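 Values are medians from duplicate plates. Each reflects relative viability, defined as the nuclei count of treated wells over that of vehicle wells. Lung cancer cell lines in 1536-well plates were pin-tool dosed one day after seeding with one drug alone or with a fixed anchor-drug dose plus five library-drug doses (not always all listed) in √10 steps, then fixed, stained and imaged at 4× after 5 days.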

Carboplatin + Navitoclax = compound: C1CC(C1)(C(=O)O)C(=O)O.[NH2-].[NH2-].[Pt+2] [Carboplatin] + CC1(C)CCC(c2ccc(Cl)cc2)=C(CN2CCN(c3ccc(C(=O)NS(=O)(=O)c4ccc(N[C@H](CCN5CCOCC5)CSc5ccccc5)c(S(=O)(=O)C(F)(F)F)c4)cc3)CC2)C1 [Navitoclax] (partner 0.5 µM)
In short: as §1

Carboplatin + Lapatinib = compound: C1CC(C1)(C(=O)O)C(=O)O.[NH2-].[NH2-].[Pt+2] [Carboplatin] + CS(=O)(=O)CCNCc1ccc(-c2ccc3ncnc(Nc4ccc(OCc5cccc(F)c5)c(Cl)c4)c3c2)o1 [Lapatinib] (partner 2 µM)
In short: as §1

GSK126 + Vorinostat = compound: CC[C@H](C)N1C=C(C2=C(C=C(C=C21)C3=CN=C(C=C3)N4CCNCC4)C(=O)NCC5=C(C=C(NC5=O)C)C)C [GSK126] + O=C(CCCCCCC(=O)Nc1ccccc1)NO [Vorinostat] (partner 1 µM)
In short: as §1

Row | Cell Line | relative viability (MLN4924 + Dasatinib; first compound 0.04 µM) | relative viability (MLN4924 + Dasatinib; first compound 0.1265 µM) | relative viability (MLN4924 + Dasatinib; first compound 0.4 µM) | relative viability (MLN4924 + Dasatinib; first compound 1.265 µM) | relative viability (MLN4924 + Dasatinib; first compound 4 µM) | relative viability (Carboplatin + Navitoclax; first compound 0.08 µM) | relative viability (Carboplatin + Navitoclax; first compound 0.253 µM) | relative viability (Carboplatin + Navitoclax; first compound 0.8 µM) | relative viability (Carboplatin + Navitoclax; first compound 2.53 µM) | relative viability (Carboplatin + Navitoclax; first compound 8 µM) | relative viability (Carboplatin + Lapatinib; first compound 0.08 µM) | relative viability (Carboplatin + Lapatinib; first compound 0.253 µM) | relative viability (Carboplatin + Lapatinib; first compound 0.8 µM) | relative viability (Carboplatin + Lapatinib; first compound 2.53 µM) | relative viability (Carboplatin + Lapatinib; first compound 8 µM) | relative viability (GSK126 + Vorinostat; first compound 0.08 µM) | relative viability (GSK126 + Vorinostat; first compound 0.253 µM) | relative viability (GSK126 + Vorinostat; first compound 0.8 µM) | relative viability (GSK126 + Vorinostat; first compound 2.53 µM) | relative viability (GSK126 + Vorinostat; first compound 8 µM)
1 | 201T | 0.69 | 0.615 | 0.598 | 0.319 | 0.318 | 1.2 | 1.18 | 1.12 | 1.14 | 1.18 | 1.06 | 1.08 | 1.11 | 1.08 | 0.99 | 1.05 | 1.04 | 0.954 | 1.13 | 1.15
2 | A549 | – | – | – | – | – | 1.25 | 1.29 | 1.18 | 0.985 | 0.535 | 1.12 | 0.938 | 0.911 | 0.928 | 0.437 | – | – | – | – | –
3 | A-427 | 0.367 | 0.529 | 0.248 | 0.145 | 0.179 | 0.973 | 0.941 | 0.953 | 0.908 | 0.964 | 1.1 | 1.05 | 1.04 | 1.04 | 0.985 | 0.863 | 0.833 | 0.865 | 0.958 | 0.896
4 | ABC-1 | 0.426 | 0.433 | 0.302 | 0.213 | 0.237 | – | – | – | – | – | 1.12 | 1.55 | 0.848 | 0.902 | 1.17 | 1.19 | 1.08 | 1.05 | 1.11 | 1.01
5 | BEN | 0.309 | 0.252 | 0.198 | 0.155 | 0.146 | 0.0584 | 0.0591 | 0.0635 | 0.0642 | 0.0703 | 0.797 | 0.87 | 0.749 | 0.654 | 0.59 | 0.658 | 0.528 | 0.503 | 0.617 | 0.617
6 | CAL-12T | 0.371 | 0.336 | 0.332 | 0.143 | 0.105 | 1.2 | 1.21 | 1.23 | 1.26 | 1.09 | 0.754 | 0.624 | 0.749 | 0.755 | 0.639 | 0.852 | 0.814 | 0.614 | 0.777 | 0.9
7 | COR-L23 | 0.487 | 0.617 | 0.507 | 0.154 | 0.101 | 0.992 | 0.883 | 0.838 | 0.84 | 0.443 | 0.946 | 0.919 | 0.67 | 0.728 | 0.419 | 0.56 | 0.42 | 0.461 | 0.453 | 0.407
8 | COR-L 105 | 0.398 | 0.289 | 0.33 | 0.222 | 0.225 | 0.66 | 0.809 | 0.595 | 0.822 | 0.531 | 0.354 | 0.349 | 0.381 | 0.332 | 0.382 | 0.963 | 0.828 | 0.639 | 0.826 | 0.68
9 | Calu-6 | – | – | – | – | – | 0.931 | 0.77 | 0.824 | 0.737 | 0.296 | 1.12 | 1.06 | 1.03 | 0.87 | 0.456 | – | – | – | – | –
10 | ChaGo-K-1 | 0.414 | 0.376 | 0.323 | 0.184 | 0.17 | 1.17 | 1.01 | 0.944 | 0.798 | 0.53 | – | – | – | – | – | 0.767 | 0.736 | 0.747 | 0.825 | 0.763
11 | EBC-1 | – | – | – | – | – | 0.479 | 0.364 | 0.443 | 0.401 | 0.33 | 0.201 | 0.234 | 0.201 | 0.208 | 0.204 | – | – | – | – | –
12 | EKVX | 0.588 | 0.261 | 0.471 | 0.193 | 0.238 | 0.948 | 1.03 | 0.909 | 0.967 | 0.852 | 0.21 | 0.2 | 0.217 | 0.191 | 0.218 | 0.778 | 0.659 | 0.708 | 0.687 | 0.574
13 | EMC-BAC-2 | 0.584 | 0.572 | 0.32 | 0.191 | 0.159 | 1.24 | 1.11 | 1.16 | 1.12 | 1.02 | 0.883 | 0.886 | 0.924 | 0.837 | 0.88 | 0.427 | 0.4 | 0.442 | 0.451 | 0.499
14 | EPLC-272H | 0.499 | 0.448 | 0.071 | 0.108 | 0.11 | 1.15 | 1.18 | 0.978 | 1.29 | 1.11 | 1.01 | 1.14 | 0.961 | 0.981 | 0.901 | 0.346 | 0.342 | 0.344 | 0.29 | 0.511
15 | H3255 | 0.314 | 0.349 | 0.296 | 0.256 | 0.235 | 0.658 | 0.563 | 0.634 | 0.471 | 0.476 | 0.276 | 0.248 | 0.269 | 0.257 | 0.236 | 0.821 | 0.865 | 0.842 | 0.817 | 0.794
16 | HARA | 0.362 | 0.358 | 0.311 | 0.0814 | 0.0506 | 1.1 | 1.16 | 1.08 | 1.07 | 1.09 | 0.816 | 0.842 | 0.841 | 0.654 | 0.695 | 0.554 | 0.47 | 0.551 | 0.51 | 0.41
17 | HCC-15 | 0.498 | 0.183 | 0.132 | 0.0695 | 0.0802 | 0.73 | 0.702 | 0.718 | 0.699 | 0.604 | 0.919 | 0.854 | 0.875 | 0.814 | 0.66 | 0.887 | 0.756 | 0.843 | 0.816 | 0.714
18 | HCC-44 | – | – | – | – | – | 0.949 | 0.99 | 0.914 | 0.786 | 0.874 | 1.03 | 1.01 | 0.984 | 0.965 | 0.968 | 1.15 | 1.15 | 1.05 | 1.08 | 1.15
